Data: patent US20240002379A1, “ASYMMETRIC CONJUGATE COMPOUNDS” (Pheon Therapeutics Ltd., priority 2016, published 2024)

How the values were obtained:
[1] = tested on: fluorescently labelled DNA duplex 5′-[…]-3′; assay: FRET DNA melting, FIG. 17 top sequence; assay type: binding; settings: suggests interstrand cross-link formation
Description: (§1) Further FRET DNA melting studies were undertaken on a number of molecules using three fluorescently labelled sequences. The sequences (FIG. 17) were designed to provide additional evidence that the series can form inter- and intrastrand cross-links. Inosines were inserted in place of traditional DNA bases in some cases to limit the number of binding sites available for the compounds to interact with. The short duplexes used in this FRET study are relatively unstable in the duplex form with a melting temperature below 30° C. so that, in the absence of ligand, a large part of the melting occurs below the starting temperature of the experiment. […] Increasing concentrations of 13 cause a greater amount of the melting transition to appear at the higher temperature (i.e. a greater number of the DNA molecules are cross-linked). […]
(§2) The reaction mixture was comprised of 4 μL of 250 mM phosphate buffer (final concentration of 50 mM), 4 μL flourophor and 4 μL quencher molecule of the appropriate oligonucleotide for a final concentration of 0.2 PM, 4 μL 5 M sodium chloride (final concentration of 1 M NaCl), and 4 μL of distilled H2O. […] This mixture was analysed without prior annealing.
(§3) Fluorescence melting profiles were measured using a Roche LightCycler using a total reaction volume of 20 μL. […] Annealing steps and melting steps were all recorded and changes in fluorescence were measured at 520 nm. […]

[2] = tested on: fluorescently labelled DNA duplex 5′-[…]-3′; assay: FRET DNA melting, FIG. 17 middle sequence; assay type: binding; settings: suggests interstrand cross-link formation
Description: as §1, §2, §3

COc1cc2c(cc1OCc1cccc(CC(=O)N3C[C@@H](CCl)c4c3cc(O)c3ccccc43)c1)N=C[C@@H]1CCCCN1C2=O [Compound 42, (S)-3-((3-(2-((S)-1-(Chloromethyl)-5-hydroxy-1,2-dihydro-3H-benzo[e]indol-3-yl)-2-oxoethyl)benzyl)oxy)-2-methoxy-7,8,9,10-tetrahydrobenzo[e]pyrido[1,2-a][1,4]diazepin-12(6aH)-one]
Tm value [1]: ~80 °C | Tm value [2]: ~80 °C
